PubChem BioAssay (NCI)
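Compound exposure: 48 hours, 5 concentrations, 96-well plates. TGI denotes the concentration required for complete inhibition of growth.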

Legend:
Test in all cases: NCI tumour cell line growth inhibition, 48 h
OVCAR-4 ovarian = tested on: OVCAR-4 ovarian
DLD-1 colon = tested on: DLD-1 colon
RXF 393 renal = tested on: RXF 393 renal
COLO 205 colon = tested on: COLO 205 colon
UACC-257 melanoma = tested on: UACC-257 melanoma
MCF7 breast = tested on: MCF7 breast
SK-MEL-2 melanoma = tested on: SK-MEL-2 melanoma
HCT-116 colon = tested on: HCT-116 colon
HT29 colon = tested on: HT29 colon
CCRF-CEM leukemia = tested on: CCRF-CEM leukemia
SNB-75 CNS = tested on: SNB-75 CNS
SNB-19 CNS = tested on: SNB-19 CNS
HOP-62 NSCLC = tested on: HOP-62 NSCLC
MALME-3M melanoma = tested on: MALME-3M melanoma
SF-295 CNS = tested on: SF-295 CNS
A498 renal = tested on: A498 renal
SF-268 CNS = tested on: SF-268 CNS
UACC-62 melanoma = tested on: UACC-62 melanoma
A549 NSCLC = tested on: A549 NSCLC
TK-10 renal = tested on: TK-10 renal

Measured: TGI

CC(C)=CCC/C(C)=C/CCC1(C)C=Cc2c(c3ccccc3oc2=O)O1 (centres undefined)
31.2 µM: UACC-257 melanoma
17.8 µM: HOP-62 NSCLC
28.4 µM: OVCAR-4 ovarian
24 µM: UACC-62 melanoma
19.8 µM: SNB-75 CNS
40.8 µM: SF-268 CNS
30.5 µM: MCF7 breast
> 74 µM: CCRF-CEM leukemia
35.5 µM: COLO 205 colon
33.2 µM: A549 NSCLC
31.4 µM: SK-MEL-2 melanoma
37.7 µM: SNB-19 CNS
27.8 µM: RXF 393 renal
28.5 µM: DLD-1 colon
33.7 µM: HT29 colon
28 µM: HCT-116 colon
27.1 µM: A498 renal
33.9 µM: SF-295 CNS
43.7 µM: MALME-3M melanoma

O=C(O)C12CC3CC(C1)C2C=C3P(=O)(O)O (centres undefined)
> 100 µM: OVCAR-4 ovarian | DLD-1 colon | RXF 393 renal | COLO 205 colon | UACC-257 melanoma | SK-MEL-2 melanoma | HCT-116 colon | HT29 colon | CCRF-CEM leukemia | SNB-75 CNS | TK-10 renal | HOP-62 NSCLC | MALME-3M melanoma | SF-295 CNS | SF-268 CNS | UACC-62 melanoma

COc1cc(/C=C/C2=C(C#N)C(=O)OC2(C)C)ccc1O
> 100 µM: DLD-1 colon | RXF 393 renal | COLO 205 colon | UACC-257 melanoma | SK-MEL-2 melanoma | HCT-116 colon | HT29 colon | SNB-75 CNS | TK-10 renal | SNB-19 CNS | HOP-62 NSCLC | MALME-3M melanoma | SF-295 CNS | A498 renal | SF-268 CNS | UACC-62 melanoma | A549 NSCLC
33.1 µM: CCRF-CEM leukemia

Cc1cn(C2CC(O)C(Cn3nncc3Cn3ncc(=O)[nH]c3=O)O2)c(=O)[nH]c1=O (centres undefined)
> 100 µM: OVCAR-4 ovarian | RXF 393 renal | COLO 205 colon | UACC-257 melanoma | MCF7 breast | SK-MEL-2 melanoma | HCT-116 colon | CCRF-CEM leukemia | TK-10 renal | SNB-19 CNS | HOP-62 NSCLC | MALME-3M melanoma | SF-295 CNS | A498 renal | SF-268 CNS | UACC-62 melanoma | A549 NSCLC

C=CCNC(=O)CN(CC(=O)OC)C1CCCCC1N(CC(=O)OC)CC(=O)OC (centres undefined)
> 100 µM: RXF 393 renal | UACC-257 melanoma | MCF7 breast | SK-MEL-2 melanoma | HCT-116 colon | HT29 colon | CCRF-CEM leukemia | TK-10 renal | SNB-19 CNS | HOP-62 NSCLC | MALME-3M melanoma | SF-295 CNS | A498 renal | SF-268 CNS | UACC-62 melanoma | A549 NSCLC

Cc1c(C2=NN=C(N=Nc3c(O)cccc3O)/C2=C/c2ccccc2)c(=O)n(-c2ccccc2)n1C
> 100 µM: OVCAR-4 ovarian | DLD-1 colon | RXF 393 renal | COLO 205 colon | UACC-257 melanoma | MCF7 breast | SK-MEL-2 melanoma | HCT-116 colon | HT29 colon | CCRF-CEM leukemia | SNB-75 CNS | SNB-19 CNS | HOP-62 NSCLC | MALME-3M melanoma | SF-295 CNS | A498 renal | SF-268 CNS | UACC-62 melanoma | A549 NSCLC

CC(C)=CC(=O)OC1C2C(C)=CC(O)C(O)C2(C)C2C3(O)OCC24C(CC(=O)OC14)C(C)C3O (centres undefined)
0.693 µM: SNB-75 CNS
2.77 µM: COLO 205 colon
0.107 µM: MCF7 breast
0.836 µM: HT29 colon
2.43 µM: UACC-257 melanoma
0.381 µM: HCT-116 colon
0.933 µM: RXF 393 renal
9.68 µM: A549 NSCLC
0.263 µM: UACC-62 melanoma
0.485 µM: DLD-1 colon
4.07 µM: A498 renal
0.81 µM: SF-295 CNS
0.749 µM: OVCAR-4 ovarian
0.683 µM: HOP-62 NSCLC
0.624 µM: CCRF-CEM leukemia
0.655 µM: SK-MEL-2 melanoma
0.519 µM: SNB-19 CNS
0.733 µM: SF-268 CNS
0.0844 µM: MALME-3M melanoma

COc1cc(C(=O)C2CC3(CCC2(O)c2cc(OC)c(OC)c(OC)c2)CC(=O)Nc2ccccc2C3=O)cc(OC)c1OC (centres undefined)
57.5 µM: OVCAR-4 ovarian
> 100 µM: RXF 393 renal | UACC-257 melanoma | MCF7 breast | SK-MEL-2 melanoma | HCT-116 colon | HT29 colon | CCRF-CEM leukemia | SNB-75 CNS | TK-10 renal | SNB-19 CNS | HOP-62 NSCLC | MALME-3M melanoma | SF-295 CNS | A498 renal | SF-268 CNS | UACC-62 melanoma | A549 NSCLC
62.6 µM: COLO 205 colon

Nc1n[nH]c(CCCCCCCc2nc(N)n[nH]2)n1
> 100 µM: OVCAR-4 ovarian | DLD-1 colon | RXF 393 renal | UACC-257 melanoma | SK-MEL-2 melanoma | HCT-116 colon | HT29 colon | CCRF-CEM leukemia | SNB-75 CNS | TK-10 renal | SNB-19 CNS | HOP-62 NSCLC | MALME-3M melanoma | A498 renal | SF-268 CNS | UACC-62 melanoma
